Data published in US20110158969A1, “COMPOSITIONS AND METHODS FOR USING STROMAL CELLS TO ENHANCE TREATMENT OF CENTRAL NERVOUS SYSTEM INJURIES” (HENRY FORD HEALTH SYSTEM, priority 2008, published 2011).

Tests used:
[1] = test system: Rat Intracerebral Hemorrhage (ICH) Model; assay: Neurological severity score (NSS) test in rat ICH model; format: in vivo; settings: end of second week (day 14) after ICH; vs human fibroblast control group; P<0.05 significant
Protocol: (§1) Functional neurological tests. Functional neurological outcomes were measured by the neurological severity score test (NSS) (Chen et al., 2001) and the corner turn test (Zhang et al., 2002), as previously described in Seyfried et al., 2006. Statistical analysis. Statistical analysis of functional scores was performed using the Student's two-tailed t-test for independent samples.

Rat ICH Model = assay: Striatal tissue loss (H & E staining, image analysis) in rat ICH model; format: in vivo; settings: 14 days after ICH; relative to contralateral striatum; mean±standard error; mannitol 1.5 g/kg iv, 1 million cells intraarterial
Protocol: Thirty-six male Wistar rats weighing from 270 to 320 grams were used for intracerebral hemorrhage studies. Stereotactic stabilization and localization were used in the rats under general anesthesia as previously described (Seyfried et al., 2006). ICH was induced by injecting 100 μl of autologous blood, obtained from the femoral vein, into the right striatum at a steady infusion rate of 10 μl per minute (Seyfried et al., 2004). Twenty four hours after ICH, the animals were divided into four experimental groups. Group 1 received only intraarterial (via internal carotid artery) injection of 1 million human primary fibroblasts in phosphate-buffered saline (PBS) as a control. Group 2 received intravenous injection of mannitol at a dose of 1.5 g/kg in PBS via the tail vein. Group 3 received intraarterial (internal carotid artery) injection of 1 million hBMSCs in PBS. Group 4 received intravenous injection of mannitol at a dose of 1.5 g/kg followed 10 minutes later by intraarterial injection of 1 million hBMSCs in PBS. All treatments were administered 24 hours after induction of ICH. All rats also received a daily intraperitoneal injection of 100 mg/kg BrdU starting at day 1 after ICH for 14 days.
Histology and immunohistochemistry. […] Percentage of the striatal tissue loss compared to the contralateral striatum was calculated using an image analysis system (Data Translation, Marlboro, Mass.). […]

[2] = test system: Rat Intracerebral Hemorrhage (ICH) Model; assay: Corner turn test in rat ICH model; format: in vivo; settings: end of second week (day 14) after ICH; vs human fibroblast control group; P<0.05 significant
Protocol: as §1

[3] = test system: BrdU-positive cells in the boundary around the lesion; assay: BrdU immunostaining, proliferating cells around the lesion; format: in vivo, rat; settings: 14 days after ICH; vs control group; P<0.05

OC[C@@H](O)[C@@H](O)[C@H](O)[C@H](O)CO [mannitol]
functional neurological outcome assessed by NSS [1]: failed to show any statistically significant neurological improvement | percentage loss of striatal tissues on the side of hemorrhage (Rat ICH Model): 25.9±1.75% | functional neurological outcome assessed by corner turn test [2]: failed to show any statistically significant neurological improvement | BrdU positive staining cells around the injured site [3]: significantly increased the BrdU labeling
